# Experimental data reported in patent publication US9290486B1, “Compositions and methods for the treatment of epilepsy” (CELLIX BIO PRIVATE LIMITED, priority 2014, dated 2016).
# Like-named read-outs stand apart in the source and are kept apart here.
# Assay: Blood and cerebrospinal fluid pharmacokinetics after acute intraperitoneal administration in freely moving rats
# Format: in vivo
# Settings: for serum and CSF concentrations versus dose: intraperitoneal, 20, 40 and 80 mg/kg; for Elimination half-life (t1/2)-CSF (Mean) / penetration of the blood brain barrier / Elimination half-life (t1/2)-Serum (Mean): intraperitoneal; for penetration of the blood brain barrier: appearance in serum and CSF; for Tmax: rat, ip, acute intraperitoneal, 20, 40 and 80 mg/kg
# Experimental: Blood and Cerebrospinal Fluid Pharmacokinetics in Comparison of the Levetiracetam and Formula II (2-1) in Rats
# The temporal pharmacokinetic interrelationship of levetiracetam and Formula II (2-1) in blood and cerebrospinal fluid (CSF) was studied after acute intraperitoneal administration of levetiracetam and Formula II (2-1), (20, 40 and 80 mg/kg), using an animal model that permits concurrent blood and CSF sampling in freely moving rats.
# [1] = cerebrospinal fluid, read-out: Tmax mean range, CSF
# [2] = serum, read-out: time to maximum concentration (Tmax) mean range, serum
Compound,serum and CSF concentrations versus dose,Elimination half-life (t1/2)-CSF (Mean) [h],penetration of the blood brain barrier,Elimination half-life (t1/2)-Serum (Mean) (serum) [h],Tmax [1] [h],Tmax [2] [h]
CC[C@@H](C(N)=O)N1CCCC1=O [levetiracetam],rose essentially linearly and dose-dependently,4.4 to 4.9,ready penetration of the blood brain barrier,1.8 to 2.8,1.33 to 1.92,0.25 to 0.5
CC[C@@H](C(=O)NC(=O)OC(C)OC(=O)CCCC[C@@H]1CCSS1)N1CCCC1=O (stereo partly drawn) [Formula II (2-1)],rose essentially linearly and dose-dependently,4.8 to 5.6,ready penetration of the blood brain barrier,2.3 to 3.4,2.14 to 2.83,0.47 to 0.89
